{"source": "patent US9572817B2", "about": "“Use of androgens for vascular regeneration and endothelial repair” (THE HEART RESEARCH INSTITUTE LTD., priority 2008, dated 2017)", "key": {"[1]": {"tested_on": "Human Umbilical Endothelial Cells (HUVEC)", "assay": "EC migration (scratch assay and boyden chamber assay)", "format": "cell-based", "description": "(§1) The effect of the non-aromatizable androgen dihydrotestosterone was assessed on three key angiogenic processes: endothelial cell (EC) migration, EC proliferation and EC tubulogenesis. Cells were treated with 0, 4, 40 or 400 nM dihydrotestosterone (DHT, a potent androgen) with and without the androgen-receptor antagonist hydroxyflutamide (HF).\nEC migration was assessed via a scratch assay and boyden chamber assay. Human Umbilical Endothelial Cells (HUVEC) monolayers were grown in the presence of varying doses of DHT±Hydroxyflutamide (HF), and either scratched or placed on top of permeable membranes. EC migration across the culture surface or through the membranes was assessed at 24 h and 6 h respectively via light and fluorescence microscopy respectively."}, "HUVECs [2]": {"tested_on": "HUVECs", "assay": "EC proliferation (direct counting of cell numbers and MTS Assay)", "format": "cell-based, Human", "description": "as §1\nEC proliferation was assessed using two methods: direct counting of cell numbers and the MTS Assay. HUVECs were seeded at a density of 1×10^4 cells/ml (12 well plates for counting, 96 well plates for MTS assay) in endothelial growth media in the presence of varying doses DHT±Hydroxyflutamide (HF). After 48 h, cells were either harvested from 12 well plates and counted or incubated with MTS reagent in the 96 well plates with absorbance measured subsequently at 490 nm measured."}, "Male C57B16/J mice [3]": {"tested_on": "Male C57B16/J mice", "conditions": "castrate+DHT male mice, after 7 days; control 0.39±0.03", "from_the_text": "(§2) Male C57B16/J mice were either castrated or sham-castrated after reaching sexual maturity (6 weeks). After a period of 10 days, 50% of both castrated and sham-castrated mice received a 1 cm subcutaneous silastic implant containing DHT."}, "HUVECs [4]": {"tested_on": "HUVECs", "assay": "EC tubulogenesis (co-culture assay of fibroblasts and ECs)", "format": "cell-based, Human", "conditions": "for EC tubulogenesis vs. 100% control value: donor cells; for tubule formation vs. 100% control value: male EC, chronic exposure (72 h)", "description": "The effect of the non-aromatizable androgen dihydrotestosterone was assessed on three key angiogenic processes: endothelial cell (EC) migration, EC proliferation and EC tubulogenesis.\nCo-cultures were grown in the presence of DHT±Hydroxyflutamide (HF). After 72 h, co-cultures were assessed using immunohistochemistry for EC specific markers and image analysis software."}, "Male C57B16/J mice [5]": {"tested_on": "Male C57B16/J mice", "conditions": "castrate+DHT", "from_the_text": "as §2\nMononuclear cells were harvested from the spleens and bone marrow of all animals and assessed via cell culture and flow cytometry. Cells were and stained with fluorescein isothiocyanate-lectin and/or 1,1(-dioctadecyl-3,3,3(,3(-tetramethylindocarbocyanine (DiI)-labelled, acetylated low-density lipoprotein (Vasa M, et al. Number and migratory activity of circulating endothelial progenitor cells inversely correlate with risk factors for coronary artery disease. Circ Res. 2001; 89:e1-e7)."}, "[6]": {"conditions": "intramuscular injection; cited from earlier work"}}, "note": "Read-outs that look alike come from different tables or passages of the source.", "data": [{"smiles": "C[C@]12CCC(=O)C[C@@H]1CC[C@@H]1[C@@H]2CC[C@]2(C)[C@@H](O)CC[C@@H]12", "note": "[DHT, 5α-dihydrotestosterone]", "values": [{"measurement": "EC migration vs. 100% control value", "setting": "[1]; donor cells, DHT 4 nM", "result": "90±5", "unit": "%"}, {"measurement": "EC migration vs. 100% control value", "setting": "[1]; donor cells, DHT 40 nM", "result": "96±5", "unit": "%"}, {"measurement": "EC migration vs. 100% control value", "setting": "[1]; donor cells, DHT 400 nM", "result": "93±8", "unit": "%"}, {"measurement": "EC migration vs. 100% control value", "setting": "[1]; male EC, DHT 4 nM, after 24 h", "result": "138±7", "unit": "%"}, {"measurement": "EC migration vs. 100% control value", "setting": "[1]; male EC, DHT 40 nM, after 24 h", "result": "280±23", "unit": "%"}, {"measurement": "EC migration vs. 100% control value", "setting": "[1]; male EC, DHT 400 nM, after 24 h", "result": "306±32", "unit": "%"}, {"measurement": "EC proliferation vs. 100% control value", "setting": "HUVECs [2]; donor cells, DHT 4 nM", "result": "92±5", "unit": "%"}, {"measurement": "EC proliferation vs. 100% control value", "setting": "HUVECs [2]; donor cells, DHT 40 nM", "result": "92±3", "unit": "%"}, {"measurement": "EC proliferation vs. 100% control value", "setting": "HUVECs [2]; donor cells, DHT 400 nM", "result": "89±6", "unit": "%"}, {"measurement": "EC proliferation vs. 100% control value", "setting": "HUVECs [2]; male EC, DHT 4 nM, after 48 h", "result": "112±8", "unit": "%"}, {"measurement": "EC proliferation vs. 100% control value", "setting": "HUVECs [2]; male EC, DHT 40 nM, after 48 h", "result": "118±5", "unit": "%"}, {"measurement": "EC proliferation vs. 100% control value", "setting": "HUVECs [2]; male EC, DHT 400 nM, after 48 h", "result": "127±4", "unit": "%"}, {"measurement": "Laser Doppler Perfusion Index (LDPI) ischemic/non-ischemic ratio", "setting": "Male C57B16/J mice [3]", "result": "0.6±0.06"}, {"measurement": "EC tubulogenesis vs. 100% control value", "setting": "HUVECs [4]; DHT 4 nM", "result": "92±3", "unit": "%"}, {"measurement": "EC tubulogenesis vs. 100% control value", "setting": "HUVECs [4]; DHT 40 nM", "result": "90±3", "unit": "%"}, {"measurement": "EC tubulogenesis vs. 100% control value", "setting": "HUVECs [4]; DHT 400 nM", "result": "92±3", "unit": "%"}, {"measurement": "tubule formation vs. 100% control value", "setting": "HUVECs [4]; DHT 4 nM", "result": "115±7", "unit": "%"}, {"measurement": "tubule formation vs. 100% control value", "setting": "HUVECs [4]; DHT 40 nM", "result": "137±5", "unit": "%"}, {"measurement": "tubule formation vs. 100% control value", "setting": "HUVECs [4]; DHT 400 nM", "result": "157±6", "unit": "%"}, {"measurement": "spleen angiogenic cells", "setting": "Male C57B16/J mice [5]; absence of ischaemia, control 15.4±1, castrated 10.3±0.9", "result": "10±0.9 Angiogenic cells/×200 field"}, {"measurement": "spleen angiogenic cells", "setting": "Male C57B16/J mice [5]; presence of ischaemia, control 22±1.7, castrated 16±0.8", "result": "26±1.3 Angiogenic cells/×200 field"}, {"measurement": "bone marrow angiogenic cells", "setting": "Male C57B16/J mice [5]; presence of ischaemia, control 60±2.4, castrate 26±1.7", "result": "36±3 Angiogenic cells/×200 field"}]}, {"smiles": "CCCCCCC(=O)O[C@H]1CC[C@H]2[C@@H]3CCC4=CC(=O)CC[C@]4(C)[C@H]3CC[C@]12C", "note": "[Testosterone enanthate]", "values": [{"measurement": "time to peak serum testosterone levels after administration", "setting": "[6]", "result": 24, "unit": "h"}]}]}
